The results in this text go back to patent US8088806B2 (Achillion Pharmaceuticals, Inc., priority 2005, dated 2012).

SMILES strings stand for the structures.

This assay concerns HCV replicon. The experiment in a line: Replicon based assay of HCV replication inhibition (NPT ELISA). It is filed as cell-based, Hepatitis C virus. To be noted: Hepatitis C virus, replicon based assay of HCV replication inhibition; Table IV; read-out: Activity. Summed up:
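NPT (neomycin phosphotransferase) content, proportional to replicon replication, quantified by capture ELISA on day four. Before that, replicon-bearing Huh-7 cells in G418-free screening medium were exposed three days at 37° C to compound, typically six doses from 10 to 0.03 micromolar, with equal DMSO across wells.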
Regarding `CCOC(=O)Cc1ccc(-c2csc(Nc3ccc(OCCCCc4ccccc4)c(C(F)(F)F)c3)n2)s1` [compound 928, ethyl 2-(5-(2-(4-(4-phenylbutoxy)-3-(trifluoromethyl)phenylamino)thiazol-4-yl)thiophen-2-yl)acetate], the EC50 was in the range of 1000 to 10000 nM.
For the molecule `O=C(O)Cc1ccc(-c2csc(Nc3ccc(OCCCCc4ccccc4)c(F)c3)n2)s1` [compound 929, 2-(5-(2-(4-(4-phenylbutoxy)-3-fluorophenylamino)thiazol-4-yl)thiophen-2-yl)acetic acid], the EC50 was under 1000 nM.
Consider `CCOC(=O)Cc1ccc(-c2csc(Nc3ccc(OCCCCc4ccccc4)c(F)c3)n2)s1` [compound 930, ethyl 2-(5-(2-(4-(4-phenylbutoxy)-3-fluorophenylamino)thiazol-4-yl)thiophen-2-yl)acetate], for which the EC50 lay within 1000 to 10000 nM.
The result for `CCOC(=O)Cc1ccc(-c2csc(Nc3ccc(OCCCOc4ccccc4)cc3)n2)s1` [compound 931, ethyl 2-(5-(2-(4-(3-phenoxypropoxy)phenylamino)thiazol-4-yl)thiophen-2-yl)acetate] reads 1000 to 10000 nM; that for `CCOC(=O)Cc1ccc(-c2csc(Nc3ccc(OCCN(CC)c4ccccc4)c(C(F)(F)F)c3)n2)s1` [compound 932], 1000 to 10000 nM.
On to `CCOC(=O)Cc1ccc(-c2csc(Nc3ccc(OCCOc4ccccc4)c(C(F)(F)F)c3)n2)s1` [compound 933, ethyl 2-(5-(2-(4-(2-phenoxyethoxy)-3-(trifluoromethyl)phenylamino)thiazol-4-yl)thiophen-2-yl)acetate], for which the EC50 lay within 1000 to 10000 nM.
In the case of `CCOC(=O)Cc1ccc(-c2csc(Nc3ccc(OCCSc4ccccc4)c(C(F)(F)F)c3)n2)s1` [compound 934, ethyl 2-(5-(2-(4-(2-(phenylthio)ethoxy)-3-(trifluoromethyl)phenylamino)thiazol-4-yl)thiophen-2-yl)acetate], the EC50 fell in the range of 1000 to 10000 nM.
Next, `Cc1cccc(CCCCOc2ccc(Nc3nc(-c4cccnc4)cs3)cc2C(F)(F)F)c1` [compound 935, N-(4-(4-m-tolylbutoxy)-3-(trifluoromethyl)phenyl)-4-(pyridin-3-yl)thiazol-2-amine]: under 1000 nM; `Cc1cc(Nc2nc(-c3cccnc3)cs2)ccc1OCCCCc1ccccc1` [compound 936, N-(4-(4-phenylbutoxy)-3-methylphenyl)-4-(pyridin-3-yl)thiazol-2-amine]: under 1000 nM; `C#CCCOc1ccc(Nc2nc(-c3cccnc3)cs2)cc1C(F)(F)F` [compound 937, N-(4-(but-3-ynyloxy)-3-(trifluoromethyl)phenyl)-4-(pyridin-3-yl)thiazol-2-amine]: under 1000 nM.
On to `FC(F)(F)c1cc(Nc2nc(-c3cccnc3)cs2)ccc1CCCCCc1ccccc1` [compound 938, N-(3-(trifluoromethyl)-4-(5-phenylpentyl)phenyl)-4-(pyridin-3-yl)thiazol-2-amine], for which the EC50 was under 1000 nM.
`COc1ncc(-c2csc(Nc3ccc(CCCCCc4ccccc4)c(C(F)(F)F)c3)n2)cn1` [compound 939, N-(3-(trifluoromethyl)-4-(5-phenylpentyl)phenyl)-4-(2-methoxypyrimidin-5-yl)thiazol-2-amine]: the EC50 was under 1000 nM.
Next, `FC(F)(F)c1cc(Nc2nc(-c3cnccn3)cs2)ccc1OCCCCc1ccccc1` [compound 940, N-(4-(4-phenylbutoxy)-3-(trifluoromethyl)phenyl)-4-(pyrazin-2-yl)thiazol-2-amine]: under 1000 nM; `FC(F)(F)c1cc(Nc2nc(-c3cnccn3)cs2)ccc1OCCCCc1cccs1` [compound 941, N-(4-(4-(thiophen-2-yl)butoxy)-3-(trifluoromethyl)phenyl)-4-(pyrazin-2-yl)thiazol-2-amine]: under 1000 nM.
Take `O=C(O)Cc1ccc(-c2csc(Nc3ccc(OCCCc4ccco4)c(C(F)(F)F)c3)n2)s1` [compound 943, 2-(5-(2-(4-(3-(furan-2-yl)propoxy)-3-(trifluoromethyl)phenylamino)thiazol-4-yl)thiophen-2-yl)acetic acid]: the EC50 was under 1000 nM.
As for `CCOC(=O)Cc1ccc(-c2csc(Nc3ccc(OCCCc4ccco4)c(C(F)(F)F)c3)n2)s1` [compound 944, ethyl 2-(5-(2-(4-(3-(furan-2-yl)propoxy)-3-(trifluoromethyl)phenylamino)thiazol-4-yl)thiophen-2-yl) acetate], the EC50 was under 1000 nM.
On to `Fc1sc(Nc2ccc(OCCCC3CCCC3)c(C(F)(F)F)c2)nc1-c1cccnc1` [compound 945, N-(4-(3-cyclopentylpropoxy)-3-(trifluoromethyl)phenyl)-5-fluoro-4-(pyridin-3-yl)thiazol-2-amine], for which the EC50 was under 1000 nM.
For the molecule `CCCCCCCCOc1ccc(Nc2nc(-c3cnc(OC)nc3)c(F)s2)cc1C(F)(F)F` [compound 946, 5-fluoro-N-(3-(trifluoromethyl)-4-(octyloxy)phenyl)-4-(2-methoxypyrimidin-5-yl)thiazol-2-amine], the EC50 was under 1000 nM.
On to `Fc1ccc(CCCCOc2ccc(Nc3nc(-c4cccnc4)cs3)cc2C(F)(F)F)cc1` [compound 947, N-(4-(4-(4-fluorophenyl)butoxy)-3-(trifluoromethyl)phenyl)-4-(pyridin-3-yl)thiazol-2-amine], for which the EC50 is under 1000 nM.
Next, `Cc1ccc(C#CCCOc2ccc(Nc3nc(-c4cccnc4)cs3)cc2C(F)(F)F)cc1` [compound 948, N-(4-(4-p-tolylbut-3-ynyloxy)-3-(trifluoromethyl)phenyl)-4-(pyridin-3-yl)thiazol-2-amine]: under 1000 nM; `Cc1cccc(C#CCCOc2ccc(Nc3nc(-c4cccnc4)cs3)cc2C(F)(F)F)c1` [compound 949, N-(4-(4-m-tolylbut-3-ynyloxy)-3-(trifluoromethyl)phenyl)-4-(pyridin-3-yl)thiazol-2-amine]: under 1000 nM; `CCCCCOc1ccc(Nc2nc(-c3cccnc3)c(F)s2)cc1C(F)(F)F` [compound 950, 5-fluoro-N-(3-(trifluoromethyl)-4-(pentyloxy)phenyl)-4-(pyridin-3-yl)thiazol-2-amine]: under 1000 nM.
In the case of `CCCCCCCCS(=O)(=O)c1ccc(Nc2nc(-c3cccnc3)cs2)cc1` [compound 951, N-(4-(octylsulfonyl)phenyl)-4-(pyridin-3-yl)thiazol-2-amine], the EC50 is under 1000 nM.
Turning to `CCCCCCCCS(=O)(=O)c1ccc(Nc2nc(-c3cccnc3)cs2)cc1C(F)(F)F` [compound 952, N-(3-(trifluoromethyl)-4-(octylsulfonyl)phenyl)-4-(pyridin-3-yl)thiazol-2-amine], the EC50 is under 1000 nM.
In the case of `CCCCCCCS(=O)(=O)CCc1ccc(Nc2nc(-c3cccnc3)cs2)cc1` [compound 953, N-(4-(2-(heptylsulfonyl)ethyl)phenyl)-4-(pyridin-3-yl)thiazol-2-amine], the EC50 lay within 1000 to 10000 nM.
